# Experimental data from US20150353982A1, “MICRO-EVOLUTION OF MICROBES” (priority 2012, published 2015).
# Key:
# [1] = tested on: Arthrospira platensis (CCMP1295); test: Toxicology assay over 72 hours (BS EN ISO 10253:2006), reduction in specific growth rate; type: cell-based
# Procedure: Toxicology assays and EC50 calculations for copper were performed on Arthrospira platensis (CCMP1295). Assessments were performed under aseptic conditions in 2 stages through an initial range-finding assay (data not shown) using CuSO4 solutions to detect the region of the EC50, followed by a final toxicology assay over 72 hours following British Standard BS EN ISO 10253:2006 [15] with ECso determination where inhibition is measured as a reduction in specific growth rate, relative to control cultures grown under identical conditions. Visual analysis was also performed to assess the effects of metal toxicity on morphology. Statistical analysis was performed using GraphPad Prism 5 Non-linear transform log(agonist) vs. response—variable response function.
# FIGS. 4A and 4B show the results of the toxicity assay using A. platensis. EC50 of Cu^2+ ions for A. platensis was calculated at 0.2976 (in the 95% CI range of 0.17-0.5208 mg/L with an R squared value of 0.8654).
# A. platensis = test: Micro-evolution exposure (60 days) with fluctuation analysis; type: cell-based, Arthrospira platensis
# Text: The result from the fluctuation analysis after the selected period can explain the presence of resistant cells in two ways. Each result is interpreted as the independent consequence of two different phenomena of adaptation. In the first case, if resistant cells arose during the exposure to the selective agent (that is, by physiological adaptation), the variance in the number of cells per culture would be low because every cell is likely to have the same chance of developing resistance (set 1A; FIG. 3). Consequently, inter-culture (tube-to-tube) variation would be consistent with the Poisson model (that is, the variance of these replicate samples would be equal to the mean). By contrast, if resistant cells arose before the exposure to the selective agent (that is, genetic adaptation by rare spontaneous mutation occurring during the time in which the cultures grew from N0 to Nt), a high variation in the number of resistant cells per culture would be found (set 1B; FIG. 3). The tube-to-tube variation would not be consistent with the Poisson model (that is, variance>mean). Fluctuation analysis can likewise show the possibility of no adaptation if no resistant cells are observed after the incubation period in any of the experimental cultures. Since set 2 is the control of the experiment, variation is due only to random sampling and variation from tube to tube would be consistent with the Poisson model. […] If a similar variance: mean ratio between set 1 and set 2 is found, it confirms that resistant cells arose during the exposure to the selecting agent (that is, a post-selective mechanism).
# FIG. 2 illustrates a typical outline of the micro-evolution process. The experiment was performed based on the method from Gonzalez et al., (2012). Following FIG. 2, the culture was cloned through the isolation of a single alga or cyanobacterium, to avoid the inclusion of previous spontaneous mutations, followed by growth. Cloning was performed through microdilution in microwell plates, where the culture was diluted to the culture density of 1 microbe (micro-organism, MO) per 200 μl, providing a single cell in each well (although if microalgae/cyanobacteria can grow on solid medium, isolation on medium agar can also be performed). Propagation of the cloned culture was performed from 200 μl in increasing volume flasks with foam stoppers in a constant temperature room 18° C.+/−1° C., average light intensity 2800 lux with 8:16 dark:light cycle.
# 10e2 MOs were then subcultured into 10 ml 40 vials (set 1), and cultures propagated further in vials and propagation flask (for set 2) (FIG. 3). Before exposure, controls ‘set 2’ were prepared through subculturing from flask into 20 vials. During the exposure stage, CuSO4 solution was added to the 60 vials of each concentration set to make-up the final concentrations of 0.3, 0.6, 1, 2 and 4 mg/Cu^2+ ions. Vials were stored under propagation conditions described above for a period of 60 days, with daily agitation, ensuring resistant cells could generate enough progeny to be detected. After the incubation period, fluctuation analysis was performed to identify those cultures which resistance arose through microevolution.
structure (smiles),measurement,setting,value
"O=S(=O)([O-])[O-].[Cu+2] [Cu^2+ ions, CuSO4]",morphological changes (microscope),"[1]; 1 mg/L Cu2+, after 24 hour",fragmentation of the trichomes
same,EC50,"[1]; 72 hours, CuSO4 solutions, 95% CI 0.17-0.5208 mg/L, R squared 0.8654",0.2976 µg/mL
same,Outcome,A. platensis; 0.3 mg/L Cu^2+ ion concentration,RSM
same,Outcome,A. platensis; 0.6 mg/L Cu^2+ ion concentration,RSM
same,Outcome,A. platensis; 1 mg/L Cu^2+ ion concentration,No adaptation
same,Outcome,A. platensis; 2 mg/L Cu^2+ ion concentration,No adaptation
same,Outcome,A. platensis; 4 mg/L Cu^2+ ion concentration,No adaptation
